Reference: patent publication US8450093B1, “Adaptive engineering of clostridium for increased butanol production” (The Ohio State University, priority 2010, dated 2013)

Key:
ATCC 824 = conditions: 12 g/L butanol
Procedure: (§1) Butanol tolerances of different strains are investigated and compared according to the maximal specific growth rates achieved under the challenge of different concentrations of butanol. Seed cultures are prepared the same way as those used for fermentor fermentation. Then, seeds of different strains are inoculated into 10 ml of CGM medium in serum tubes supplemented with different concentrations of butanol. The tubes are incubated at 37° C. and optical densities (OD600) are measured every 2 h. Growth curves may be drawn according to the OD600 data. Maximal specific growth rates (h^−1) of different strains under different butanol concentrations may be calculated based on the growth curves.

[1] = system: C. acetobutylicum ATCC 55025 (parental strain)
Procedure: as §1

JB200 = conditions: CGM medium, 37° C., OD600
Procedure: as §1

BA 101 = conditions: 12 g/L butanol
Procedure: as §1

NCIMB 8052 = conditions: 12 g/L butanol
Procedure: as §1

## butanol
ATCC 824
  growth in the presence of butanol: none of them could grow
[1]; CGM medium, 37° C., OD600
  butanol concentration above which cell growth stopped: higher than 12 g/L
[1]; general statement, parental strain
  butanol concentration at which growth usually stops (cells lysed): 10-12 g/L
JB200
  butanol concentration at which cells still grew: 16 g/L
BA 101
  growth in the presence of butanol: none of them could grow
NCIMB 8052
  growth in the presence of butanol: none of them could grow
